From patent US9403798B2, “Triazinone compound and T-type calcium channel inhibitor” (NISSAN CHEMICAL INDUSTRIES, LTD., priority 2012, dated 2016)
pIC50: −log10 of the molar value.

Target: T1, Human T-type calcium channel (Cav 3.2) (Homo sapiens, UniProt O95180)
T1 construct: Edward Perez-Reyes, University of Virginia, USA; host or cells: HEK293
Assay: Calcium Influx Inhibition Assay
Assay type: cell-based
Details: Human T-type calcium channel (Cav 3.2) expressing HEK293 cells, FLIPR Calcium 4 fluorescence
Experimental: 1. Calcium Influx Inhibition Assay
Human T-type calcium channel (Cav 3.2) expressing HEK293 cells were obtained from Prof. Edward Perez-Reyes, University of Virginia, USA. The calcium-sensitive fluorescent dye used was FLIPR Calcium 4 Assay Kit (Molecular Devices). To a black 96-well plate with a clear bottom coated with type I collagen, the human T-type calcium channel (Cav 3.2) expressing HEK293 cells were seeded and cultured overnight, and the culture medium was removed. A solution of the calcium-sensitive fluorescent dye was added, and the plate was incubated at 37° C. in an atmosphere of 5% carbon dioxide for 30 minutes. To the plate, a diluted solution of a compound was added, and the whole was further incubated at 37° C. in an atmosphere of 5% carbon dioxide for 30 minutes. While fluorescence was continuously analyzed from the bottom with a FlexStation 3 (Molecular Devices), a calcium solution was added. […] From the rise in the fluorescence from the base line, the inhibition percentage was calculated. The logarithms of compound concentrations were plotted with respect to the inhibition activities to give an IC50 value.

T1 sequence (O95180 whole entry): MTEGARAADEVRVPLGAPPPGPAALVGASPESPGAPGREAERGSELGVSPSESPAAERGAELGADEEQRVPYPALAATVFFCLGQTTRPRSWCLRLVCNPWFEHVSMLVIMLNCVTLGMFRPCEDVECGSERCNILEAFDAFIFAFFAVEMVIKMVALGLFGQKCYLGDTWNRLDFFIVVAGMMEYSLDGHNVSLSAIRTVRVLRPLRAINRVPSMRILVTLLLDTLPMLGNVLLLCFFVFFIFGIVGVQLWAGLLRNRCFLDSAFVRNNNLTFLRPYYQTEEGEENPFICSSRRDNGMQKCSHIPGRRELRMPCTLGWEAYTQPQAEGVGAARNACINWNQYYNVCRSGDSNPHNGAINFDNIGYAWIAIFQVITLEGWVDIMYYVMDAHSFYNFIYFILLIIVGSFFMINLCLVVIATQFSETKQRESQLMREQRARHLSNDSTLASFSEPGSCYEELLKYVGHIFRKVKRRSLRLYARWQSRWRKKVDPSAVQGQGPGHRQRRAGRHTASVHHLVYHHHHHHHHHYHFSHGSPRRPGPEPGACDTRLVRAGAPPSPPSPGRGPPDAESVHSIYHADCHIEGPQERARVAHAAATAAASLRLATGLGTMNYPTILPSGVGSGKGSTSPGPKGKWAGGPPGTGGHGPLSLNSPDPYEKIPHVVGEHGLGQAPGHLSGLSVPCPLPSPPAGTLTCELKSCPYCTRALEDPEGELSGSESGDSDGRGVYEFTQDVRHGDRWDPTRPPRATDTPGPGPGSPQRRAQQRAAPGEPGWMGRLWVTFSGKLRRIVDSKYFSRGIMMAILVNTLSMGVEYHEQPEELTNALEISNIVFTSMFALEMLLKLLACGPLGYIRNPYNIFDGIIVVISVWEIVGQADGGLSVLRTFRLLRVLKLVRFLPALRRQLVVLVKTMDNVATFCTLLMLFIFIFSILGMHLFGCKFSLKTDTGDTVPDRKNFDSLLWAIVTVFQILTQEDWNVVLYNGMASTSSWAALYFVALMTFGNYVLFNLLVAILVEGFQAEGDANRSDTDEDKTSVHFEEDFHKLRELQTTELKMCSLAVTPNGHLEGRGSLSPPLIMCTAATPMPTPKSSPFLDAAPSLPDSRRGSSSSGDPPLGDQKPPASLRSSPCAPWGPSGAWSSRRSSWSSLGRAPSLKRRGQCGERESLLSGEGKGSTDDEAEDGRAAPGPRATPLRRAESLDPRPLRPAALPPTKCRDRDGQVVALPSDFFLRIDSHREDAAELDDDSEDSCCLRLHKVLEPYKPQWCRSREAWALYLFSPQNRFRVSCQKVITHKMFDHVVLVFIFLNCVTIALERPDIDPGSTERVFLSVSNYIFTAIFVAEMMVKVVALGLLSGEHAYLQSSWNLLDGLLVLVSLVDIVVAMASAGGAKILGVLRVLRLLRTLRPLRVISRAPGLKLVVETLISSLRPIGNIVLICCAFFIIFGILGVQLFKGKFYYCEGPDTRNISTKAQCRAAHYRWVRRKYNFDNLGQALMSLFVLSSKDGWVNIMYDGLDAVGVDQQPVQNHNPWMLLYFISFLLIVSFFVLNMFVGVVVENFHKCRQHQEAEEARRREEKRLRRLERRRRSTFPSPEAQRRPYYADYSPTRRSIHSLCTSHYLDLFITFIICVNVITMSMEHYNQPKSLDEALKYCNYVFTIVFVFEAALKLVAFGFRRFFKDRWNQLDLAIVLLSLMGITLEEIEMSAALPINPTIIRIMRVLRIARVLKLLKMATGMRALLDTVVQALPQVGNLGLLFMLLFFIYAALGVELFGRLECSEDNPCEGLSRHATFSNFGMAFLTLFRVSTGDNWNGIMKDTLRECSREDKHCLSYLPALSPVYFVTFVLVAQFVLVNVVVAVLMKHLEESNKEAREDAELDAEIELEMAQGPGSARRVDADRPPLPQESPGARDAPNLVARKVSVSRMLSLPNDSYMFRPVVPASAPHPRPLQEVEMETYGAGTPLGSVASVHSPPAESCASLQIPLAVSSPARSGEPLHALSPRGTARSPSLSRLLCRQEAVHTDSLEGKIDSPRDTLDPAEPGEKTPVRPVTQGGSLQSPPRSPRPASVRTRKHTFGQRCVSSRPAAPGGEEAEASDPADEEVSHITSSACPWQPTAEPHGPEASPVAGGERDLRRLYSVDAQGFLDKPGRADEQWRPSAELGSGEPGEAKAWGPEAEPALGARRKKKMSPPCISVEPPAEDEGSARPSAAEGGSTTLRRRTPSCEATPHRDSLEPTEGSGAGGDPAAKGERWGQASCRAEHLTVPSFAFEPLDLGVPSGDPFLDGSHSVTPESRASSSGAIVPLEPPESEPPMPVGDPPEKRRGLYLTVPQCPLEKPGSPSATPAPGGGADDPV

Structure (SMILES)	pIC50
O=c1nc(N2CCN(c3ccc(F)cc3)CC2)ncn1Cc1ccc(OCC(F)(F)F)nc1 [compound 144]	7.02
Cc1nc(N[C@H]2C[C@@H](c3ccc(F)cc3)C2)nc(=O)n1Cc1ccc(C(F)(F)F)s1 [compound 360]	7.08
Cc1nc(N2CCN(c3ccc(F)cc3)CC2)nc(=O)n1Cc1ccc(C(F)(F)F)s1 [compound 344]	7.92
O=c1nc(N2CCN(c3ccc(F)cc3)CC2)ncn1Cc1ccc(Cl)cc1 [compound 1]	6.77
O=c1nc(N2CC=C(c3ccccc3)CC2)ncn1Cc1ccc(C(F)(F)F)s1 [compound 70]	7.72
Cc1nc(N2CC=C(c3ccc(F)cc3)CC2)nc(=O)n1Cc1ccc(C(F)(F)F)s1 [compound 340]	7.89
O=c1nc(N2CC=C(c3cncs3)CC2)ncn1Cc1ccc(C(F)(F)F)s1 [compound 265]	6.24
Cc1nc(N2CCN(c3nc(C)n(Cc4ccc(C(F)(F)F)s4)c(=O)n3)CC2)ccc1F [compound 365]	7.89
O=c1nc(N2CC=C(c3ccc(F)cc3)[C@@H](O)C2)ncn1Cc1ccc(OS(=O)(=O)C(F)(F)F)cc1 [compound 211]	8.70
O=c1nc(N2CC=C(c3cc4ccccc4o3)CC2)ncn1Cc1ccc(C(F)(F)F)s1 [compound 260]	6.85
Cc1ccc(C2=CCN(c3nc(C)n(Cc4ccc(Br)s4)c(=O)n3)C[C@@H]2O)cc1F [compound 392]	8.89
N#Cc1ccc(N2CCN(c3ncn(Cn4ccc(C(F)(F)F)n4)c(=O)n3)CC2)cc1 [compound 49]	6.07
O=c1nc(N2CCN(c3cc(F)c(F)c(F)c3)CC2)ncn1Cn1ccc(C(F)(F)F)n1 [compound 58]	6.77
O=c1nc(NC2CCC(O)(c3ccc(F)cc3)C2O)ncn1Cc1ccc(Cl)cc1 (stereo not drawn) [compound 465]	6.55
O=c1nc(N2CC=C(c3ccc(F)cc3)C(O)C2)ncn1Cn1ccc(C(F)(F)F)n1 (stereo not drawn) [compound 188]	7.38
Cc1nc(N2CC=C(c3ccc(F)cc3)[C@@H](O)C2)nc(=O)n1Cc1ccc(Cl)s1 [compound 403]	8.70
O=c1nc(N2CCN(c3ccc(F)cc3)CC2)ncn1Cc1ccc(C(F)(F)F)o1 [compound 21]	7.21
O=c1nc(N2CC=C(c3ccsc3)CC2)ncn1Cc1ccc(C(F)(F)F)s1 [compound 230]	7.66
CCCc1nc(N2CC=C(c3ccc(F)cc3)CC2)nc(=O)n1Cc1ccc(C(F)(F)F)s1 [compound 460]	7.21
O=c1nc(NC[C@H]2CCCN2c2ccc(F)cc2)ncn1Cc1ccc(Cl)cc1 [compound 129]	7.22
O=c1nc(N2CC=C(c3ccc(F)cc3)C(O)C2)ncn1Cc1ccc2c(c1)CC(C(F)(F)F)O2 (stereo not drawn) [compound 195]	8.44
O=c1nc(N2CC=C(c3ccc(F)cc3)C(O)C2)ncn1Cc1cc2c(s1)CCCC2 (stereo not drawn) [compound 201]	8.24
O=c1nc(N2CC=C(c3ccc(F)cc3)[C@@H](O)C2)ncn1Cc1ccc(OS(=O)(=O)C(F)(F)F)nc1 [compound 208]	8.21
O=c1nc(N2CC3C(C2)C3c2ccc(F)cc2)ncn1Cc1ccc(C(F)(F)F)s1 (stereo not drawn) [compound 311]	6.80

Structure (SMILES)	pIC50
CN(C)C1CN(c2ncn(Cc3ccc(C(F)(F)F)s3)c(=O)n2)CC=C1c1ccc(F)cc1 (stereo not drawn) [compound 481]	6.33
Cc1ccc(N2CCN(c3nc(C)n(Cc4ccc(C(F)(F)F)s4)c(=O)n3)CC2)cc1 [compound 363]	8.06
Cc1nc(N2CCC3(CCN(c4ccc(F)cc4)C3)CC2)nc(=O)n1Cc1ccc(C(F)(F)F)s1 [compound 370]	6.20
O=c1nc(N2CC=C(c3ccc(F)cc3)CC2)ncn1Cc1ccc(C2CC2)s1 [compound 479]	7.18
O=c1nc(N2CC=C(c3ccc(F)c(Cl)c3)[C@@H](O)C2)ncn1Cc1cc2c(s1)CCCC2 [compound 428]	8.26
Cc1nc(N2CCC(n3cc(Br)cn3)CC2)nc(=O)n1Cc1ccc(C(F)(F)F)s1 [compound 489]	6.29
O=c1nc(N2CCN(c3ccc(F)cc3)CC2)ncn1Cc1ccc(OC(F)(F)F)cc1 [compound 6]	7.72
O=c1nc(N2CC=C(c3ccc(F)cc3)CC2)ncn1Cc1ccc2c(c1)OCO2 [compound 182]	7.00
O=c1nc(NC2CCC(c3ccc(F)cc3)C2)ncn1Cc1ccc(Cl)cc1 (stereo not drawn) [compound 85]	7.24
Cc1ccc(C2=CCN(c3nc(C)n(Cc4ccc(C(F)(F)F)s4)c(=O)n3)C[C@@H]2O)cc1F [compound 349]	8.96
CC(c1ccc(C(F)(F)F)s1)n1cnc(N2CC=C(c3ccc(F)cc3)C(O)C2)nc1=O (stereo not drawn) [compound 202]	7.33
O=c1nc(N[C@@H]2CCN(c3ccc(F)cc3)C2)ncn1Cc1ccc(Cl)cc1 [compound 92]	7.33
O=c1nc(N2CC=C(c3ccc(F)cc3)C(F)C2)ncn1Cc1ccc(Cl)cc1 (stereo not drawn) [compound 107]	7.12
Cc1cccc(C2=CCN(c3ncn(Cc4cc5c(s4)CCCC5)c(=O)n3)C[C@@H]2O)n1 [compound 430]	6.80
O=c1nc(N2CC=C(c3ccc(F)cc3)C(O)C2)ncn1Cc1ccc(Cl)cc1 (stereo not drawn) [compound 90]	7.72
O=c1nc(N2CC=C(c3ccc(Cl)cn3)CC2)ncn1Cc1ccc(C(F)(F)F)s1 [compound 256]	7.38
CCCCOc1nc(N2CCN(c3ccc(F)cc3)CC2)nc(=O)n1Cc1ccc(Cl)cc1 [compound 65]	6.21
O=c1nc(N2CC=C(c3ccc(F)cc3)C(O)C2)ncn1Cc1ccc(C(F)(F)F)s1 (stereo not drawn) [compound 190]	8.48
O=c1nc(NCC2CC2c2ccc(F)cc2)ncn1Cc1ccc(C(F)(F)F)s1 (single isomer, unassigned) [compound 310]	6.77
O=c1nc(N2CC=C(c3ccc(F)c(O)c3)CC2)ncn1Cc1ccc(C(F)(F)F)s1 [compound 304]	7.19
CC(C)(C)c1cc(Cn2cnc(N3CCN(c4ccc(F)cc4)CC3)nc2=O)[nH]n1 [compound 15]	6.55
Cc1nc(N2CC=C(c3ccc(F)cc3)[C@@H](O)C2)nc(=O)n1C(C)c1ccc(C(F)(F)F)s1 (stereo partly drawn) [compound 453]	7.62
Cc1nc(C2=CCN(c3ncn(Cc4ccc(C(C)(C)C)s4)c(=O)n3)C[C@@H]2O)ccc1F [compound 415]	7.80
O=c1nc(N2CC=C(c3ccc(Cl)cc3)CC2)ncn1Cc1ccc(C(F)(F)F)s1 [compound 71]	7.62

Structure (SMILES)	pIC50
CCCCCCOc1ccc(Cn2cnc(N3CCN(c4ccc(F)cc4)CC3)nc2=O)cc1 [compound 140]	7.26
C[C@@H]1CN(c2ccc(F)cc2)CCN1c1ncn(Cc2ccc(Cl)cc2)c(=O)n1 [compound 96]	6.96
CC(=O)OC1CN(c2ncn(Cc3ccc(C(F)(F)F)s3)c(=O)n2)CC=C1c1ccc(F)cc1 (stereo not drawn) [compound 476]	7.21
COc1ccc(C2=CCN(c3ncn(Cc4ccc(C(F)(F)F)s4)c(=O)n3)CC2)s1 [compound 300]	6.80
O=c1nc(N2CC=C(c3ccc(F)c(Cl)c3)[C@@H](O)C2)ncn1Cc1ccc(C(F)(F)F)s1 [compound 326]	8.72
O=c1nc(N2CCN(c3ccc(Cl)cc3)CC2)ncn1Cn1ccc(C(F)(F)F)n1 [compound 38]	7.12
Cc1nc(N2CC=C(c3ccc(F)c(Cl)c3)[C@@H](O)C2)nc(=O)n1Cc1ccc(C(F)(F)F)s1 [compound 350]	8.96
CC(=O)OCc1nc(N2CC=C(c3ccc(F)cc3)[C@@H](O)C2)nc(=O)n1Cc1ccc(C(F)(F)F)s1 [compound 457]	7.89
Cc1nc(N2CCC(c3ccc(F)cc3)C(CO)(CO)C2)nc(=O)n1Cc1ccc(C(F)(F)F)s1 (stereo not drawn) [compound 485]	6.39
Cc1cc(Cn2cnc(N3CCN(c4ccc(F)cc4)CC3)nc2=O)sc1Br [compound 153]	7.29
COC1CN(c2ncn(Cc3ccc(C(F)(F)F)s3)c(=O)n2)CC=C1c1ccc(F)cc1 (stereo not drawn) [compound 475]	7.41
O=c1nc(N2CC=C(c3cnn(CC(F)(F)F)c3)CC2)ncn1Cc1ccc(C(F)(F)F)s1 [compound 259]	6.22
O=c1nc(N2CC=C(c3cn4c(n3)CCC4)CC2)ncn1Cc1ccc(C(F)(F)F)s1 [compound 283]	6.29
Cc1nc(N2CCN(CC(=O)C34CC5CC(CC(C5)C3)C4)CC2)nc(=O)n1Cc1ccc(C(F)(F)F)s1 [compound 487]	6.30
O=c1nc(Nc2ccn(-c3ccc(F)cc3)c2)ncn1Cc1ccc(Cl)cc1 [compound 131]	6.70
O=c1nc(N2C=CC(c3ccc(F)cc3)=CC2)ncn1Cc1ccc(C(F)(F)F)s1 [compound 484]	6.62
CCOC(=O)c1cc(C(C)(C)C)n(Cn2cnc(N3CCN(c4ccc(F)cc4)CC3)nc2=O)n1 [compound 34]	6.28
O=c1nc(N2CC=C(c3ccc(F)c(Cl)c3)[C@@H](O)C2)ncn1Cc1ccc(Cl)s1 [compound 400]	8.36
O=c1nc(N2CCN(c3ccc(F)cc3)CC2)ncn1Cc1ccc(C(F)(F)F)cc1 [compound 3]	7.00
O=c1nc(NC2CCC3(c4ccc(F)cc4)CC23)ncn1Cc1ccc(Cl)cc1 (stereo not drawn) [compound 127]	7.52
O=c1nc(N2CC=C(c3ccc(F)cc3)CC2)ncn1Cc1ccc2oc(C(F)(F)F)cc2c1 [compound 184]	7.37
O=c1nc(Nc2nc(-c3ccc(F)c(F)c3)cs2)ncn1Cc1ccc(Cl)cc1 [compound 130]	7.11
O=c1nc(N2CC=C(c3cc(F)cc(F)c3)CC2)ncn1Cc1ccc(C(F)(F)F)s1 [compound 285]	7.25
O=c1cc(C(F)(F)F)ccn1Cn1cnc(N2CCN(c3ccc(F)cc3)CC2)nc1=O [compound 16]	6.24
